Assay results from patent US10201523B2, “Use of wilforlide A for overcoming chemotherapy resistance” (WESTERN UNIVERSITY OF HEALTH SCIENCES, priority 2013, dated 2019).
Values joined by “and” are separate entries in the source; they are usually repeats but may differ in a detail not shown here. Identical values can stand only once. Like-named read-outs stand apart in the source and are kept apart here.

Legend:
K562/Dox = assay: SRB cell viability assay, daunorubicin with/without wilforlide A pretreatment; assay type: cell-based; conditions: for viability at 0.001 µM / viability at 0.1 µM / viability at 0.333 µM / viability at 1 µM / viability at 3.33 µM / viability at 10 µM / viability at 33.3 µM / viability at 100 µM / IC50: Homo sapiens; for A at 565 nm: background = 0.043
Source text: Wilforlide A sensitizes the daunorubicin-resistant myelogenous leukemia line K562/Dox, to daunorubicin. […] FIG. 5 summarizes the data of Tables 20 and 21 in a graphical format.

K562 = assay: SRB cell viability assay, daunorubicin IC50; assay type: cell-based; conditions: Homo sapiens, 72 h, read-out: Drug IC50 no pre-Tx
[1] = K562/Dox, no wilforlide A pre-Tx, daunorubicin 0.001 μM 72 h
[2] = K562/Dox, no wilforlide A pre-Tx, daunorubicin 0.333 μM 72 h
[3] = K562/Dox, no wilforlide A pre-Tx, daunorubicin 1 μM 72 h
[4] = K562/Dox, no wilforlide A pre-Tx, daunorubicin 3.33 μM 72 h
[5] = K562/Dox, no wilforlide A pre-Tx, daunorubicin 10 μM 72 h
[6] = K562/Dox, no wilforlide A pre-Tx, daunorubicin 33.3 μM 72 h
[7] = K562/Dox, no wilforlide A pre-Tx, daunorubicin 100 μM 72 h
[8] = K562/Dox, wilforlide A 2.5 μg/ml pre-Tx, daunorubicin 0.001 μM 72 h
[9] = K562/Dox, wilforlide A 2.5 μg/ml pre-Tx, daunorubicin 0.333 μM 72 h
[10] = K562/Dox, wilforlide A 2.5 μg/ml pre-Tx, daunorubicin 1 μM 72 h
[11] = K562/Dox, wilforlide A 2.5 μg/ml pre-Tx, daunorubicin 3.33 μM 72 h
[12] = K562/Dox, wilforlide A 2.5 μg/ml pre-Tx, daunorubicin 10 μM 72 h
[13] = K562/Dox, wilforlide A 2.5 μg/ml pre-Tx, daunorubicin 33.3 μM 72 h
[14] = K562/Dox, wilforlide A 2.5 μg/ml pre-Tx, daunorubicin 100 μM 72 h

Structure (SMILES): COc1cccc2c1C(=O)c1c(O)c3c(c(O)c1C2=O)C[C@@](O)(C(C)=O)C[C@@H]3O[C@H]1C[C@H](N)[C@H](O)[C@H](C)O1 [daunorubicin]
- viability at 0.001 µM (K562/Dox; K562, 72 h, K562/Dox, no wilforlide A pre-Tx, daunorubicin 0.001 μM 72 h): 100%
- viability at 0.1 µM (K562/Dox; K562, 72 h, K562/Dox, no wilforlide A pre-Tx, daunorubicin 0.1 μM 72 h): 58.1%
- viability at 0.333 µM (K562/Dox; K562, 72 h, K562/Dox, no wilforlide A pre-Tx, daunorubicin 0.333 μM 72 h): 102%
- viability at 1 µM (K562/Dox; K562, 72 h, K562/Dox, no wilforlide A pre-Tx, daunorubicin 1 μM 72 h): 99.6%
- viability at 3.33 µM (K562/Dox; K562, 72 h, K562/Dox, no wilforlide A pre-Tx, daunorubicin 3.33 μM 72 h): 95.9%
- viability at 10 µM (K562/Dox; K562, 72 h, K562/Dox, no wilforlide A pre-Tx, daunorubicin 10 μM 72 h): 92.3%
- viability at 33.3 µM (K562/Dox; K562, 72 h, K562/Dox, no wilforlide A pre-Tx, daunorubicin 33.3 μM 72 h): 53.8%
- viability at 100 µM (K562/Dox; K562, 72 h, K562/Dox, no wilforlide A pre-Tx, daunorubicin 100 μM 72 h): 22.4%
- viability at 0.001 µM (K562/Dox; K562, 72 h, K562/Dox, wilforlide A 2.5 μg/ml pre-Tx, daunorubicin 0.001 μM 72 h): 100%
- viability at 0.1 µM (K562/Dox; K562, 72 h, K562/Dox, wilforlide A 2.5 μg/ml pre-Tx, daunorubicin 0.1 μM 72 h): 54.1%
- viability at 0.333 µM (K562/Dox; K562, 72 h, K562/Dox, wilforlide A 2.5 μg/ml pre-Tx, daunorubicin 0.333 μM 72 h): 104%
- viability at 1 µM (K562/Dox; K562, 72 h, K562/Dox, wilforlide A 2.5 μg/ml pre-Tx, daunorubicin 1 μM 72 h): 99%
- viability at 3.33 µM (K562/Dox; K562, 72 h, K562/Dox, wilforlide A 2.5 μg/ml pre-Tx, daunorubicin 3.33 μM 72 h): 95.4%
- viability at 10 µM (K562/Dox; K562, 72 h, K562/Dox, wilforlide A 2.5 μg/ml pre-Tx, daunorubicin 10 μM 72 h): 78.6%
- viability at 33.3 µM (K562/Dox; K562, 72 h, K562/Dox, wilforlide A 2.5 μg/ml pre-Tx, daunorubicin 33.3 μM 72 h): 33.7%
- viability at 100 µM (K562/Dox; K562, 72 h, K562/Dox, wilforlide A 2.5 μg/ml pre-Tx, daunorubicin 100 μM 72 h): 29.6%
- IC50 (K562/Dox; K562, 72 h, read-out: Drug IC50 no pre-Tx): 30.7 µM
- IC50 (K562/Dox; K562, read-out: Drug IC50 after wilforlide A pre-Tx): 13.6 µM
- mean A (K562/Dox; [1]): 2.893
- A at 565 nm (K562/Dox; [1]): 2.848 and 2.923 and 2.909
- mean A (K562/Dox; K562/Dox, no wilforlide A pre-Tx, daunorubicin 0.1 μM 72 h): 1.682
- mean A (K562/Dox; [2]): 2.951
- A at 565 nm (K562/Dox; [2]): 2.943 and 2.956 and 2.955
- mean A (K562/Dox; [3]): 2.880
- A at 565 nm (K562/Dox; [3]): 2.892 and 2.878 and 2.872
- mean A (K562/Dox; [4]): 2.775
- A at 565 nm (K562/Dox; [4]): 2.805 and 2.780 and 2.741
- mean A (K562/Dox; [5]): 2.670
- A at 565 nm (K562/Dox; [5]): 2.678 and 2.720 and 2.613
- mean A (K562/Dox; [6]): 1.556
- A at 565 nm (K562/Dox; [6]): 1.625 and 1.639 and 1.406
- mean A (K562/Dox; [7]): 0.647
- A at 565 nm (K562/Dox; [7]): 0.757 and 0.657 and 0.528
- mean A (K562/Dox; [8]): 2.815
- A at 565 nm (K562/Dox; [8]): 2.797 and 2.838 and 2.810
- mean A (K562/Dox; K562/Dox, wilforlide A 2.5 μg/ml pre-Tx, daunorubicin 0.1 μM 72 h): 1.522
- mean A (K562/Dox; [9]): 2.938
- A at 565 nm (K562/Dox; [9]): 2.838 and 2.951 and 3.025
- mean A (K562/Dox; [10]): 2.786
- A at 565 nm (K562/Dox; [10]): 2.777 and 2.784 and 2.799
- mean A (K562/Dox; [11]): 2.684
- A at 565 nm (K562/Dox; [11]): 2.657 and 2.681 and 2.715
- mean A (K562/Dox; [12]): 2.213
- A at 565 nm (K562/Dox; [12]): 2.200 and 2.392 and 2.049
- mean A (K562/Dox; [13]): 0.947
- A at 565 nm (K562/Dox; [13]): 1.016 and 0.901 and 0.926
- mean A (K562/Dox; [14]): 0.832
- A at 565 nm (K562/Dox; [14]): 0.843 and 0.815 and 0.840
- CE (K562/Dox; chemosensitization effect, K562/Dox, wilforlide A 2.5 μg/ml pre-Tx): 2.27
- IC50 (K562): 1.05 µM
